Assay results: US20050113410A1, “Pharmaceutical salts of zafirlukast” (priority 2003, published 2005)
Structures can show the parent of a compound that is named as a salt.

Key:
[1] = Stability of the crystalline form under aqueous conditions (conversion to neutral form, checked by PXRD); format: physicochemical
Excerpt: All powder x-ray diffraction patterns were obtained using the D/Max Rapid X-ray Diffractometer (D/Max Rapid, Contact Rigaku/MSC, 9009 New Trails Drive, The Woodlands, Tex., USA 77381-5209) equipped with a copper source (Cu/Kα1.5406 angstroms), manual x-y stage, and 0.3 mm collimator. The sample was loaded into a 0.3 mm boron rich glass capillary tube (e.g., Charles Supper Company, 15 Tech Circle, Natick, Mass. 01760-1024) by sectioning off one end of the tube and tapping the open, sectioned end into a bed of the powdered sample or into the sediment of a slurried precipitate. Note, precipitate can be amorphous or crystalline. The loaded capillary was mounted in a holder that was secured into the x-y stage. A diffractogram was acquired (e.g., Control software: RINT Rapid Control Software, Rigaku Rapid/XRD, version 1.0.0, © 1999 Rigaku Co.) under ambient conditions at a power setting of 46 kV at 40 mA in reflection mode, while oscillating about the omega-axis from 0-5 degrees at 1 degree/s and spinning about the phi-axis at 2 degrees/s. The exposure time was 15 minutes unless otherwise specified. […]

[2] = commercially available form (ACCOLATE), neutral molecule; cited from earlier work
[3] = cited from earlier work

COc1cc(C(=O)NS(=O)(=O)c2ccccc2C)ccc1Cc1cn(C)c2ccc(NC(=O)OC3CCCC3)cc12 [potassium salt of zafirlukast]
PXRD diffractogram after exposure to aqueous conditions ([1]; after exposure to neutral or acidic aqueous conditions): remains unchanged | conversion back to the neutral form under aqueous conditions ([1]; aqueous conditions, either neutral or acidic): does not convert back to the neutral form

COc1cc(C(=O)NS(=O)(=O)c2ccccc2C)ccc1Cc1cn(C)c2ccc(NC(=O)OC3CCCC3)cc12 [zafirlukast, 4-(5-cyclopentyloxy-carbonylamino-1-methyl-indol-3-ylmethyl)-3-methoxy-N-o-tolylsulfonylbenzamide]
solubility in water [2]: essentially insoluble in water

COc1cc(C(=O)NS(=O)(=O)c2ccccc2C)ccc1Cc1cn(C)c2ccc(NC(=O)OC3CCCC3)cc12 [Amorphous neutral zafirlukast]
conversion of form in the presence of water [3]: convert to a monohydrate form
